Experimental findings from ChEMBL document CHEMBL2074322, “Bidirectional transport of rhodamine 123 and Hoechst 33342, fluorescence probes of the binding sites on P-glycoprotein, across MDCK-MDR1 cell monolayers” (J Pharm Sci, 2004) are described below.

Each structure is given as a SMILES string.

Common to all, as to format: functional, cell-based
Holding throughout (settings): dog

Data set [1] deals with T1, ATP-dependent translocase ABCB1 (Homo sapiens, UniProt P08183). In words: TP_TRANSPORTER: transepithelial transport in MDR1-expressing MDCK cells.
T1 sequence (P08183 whole entry): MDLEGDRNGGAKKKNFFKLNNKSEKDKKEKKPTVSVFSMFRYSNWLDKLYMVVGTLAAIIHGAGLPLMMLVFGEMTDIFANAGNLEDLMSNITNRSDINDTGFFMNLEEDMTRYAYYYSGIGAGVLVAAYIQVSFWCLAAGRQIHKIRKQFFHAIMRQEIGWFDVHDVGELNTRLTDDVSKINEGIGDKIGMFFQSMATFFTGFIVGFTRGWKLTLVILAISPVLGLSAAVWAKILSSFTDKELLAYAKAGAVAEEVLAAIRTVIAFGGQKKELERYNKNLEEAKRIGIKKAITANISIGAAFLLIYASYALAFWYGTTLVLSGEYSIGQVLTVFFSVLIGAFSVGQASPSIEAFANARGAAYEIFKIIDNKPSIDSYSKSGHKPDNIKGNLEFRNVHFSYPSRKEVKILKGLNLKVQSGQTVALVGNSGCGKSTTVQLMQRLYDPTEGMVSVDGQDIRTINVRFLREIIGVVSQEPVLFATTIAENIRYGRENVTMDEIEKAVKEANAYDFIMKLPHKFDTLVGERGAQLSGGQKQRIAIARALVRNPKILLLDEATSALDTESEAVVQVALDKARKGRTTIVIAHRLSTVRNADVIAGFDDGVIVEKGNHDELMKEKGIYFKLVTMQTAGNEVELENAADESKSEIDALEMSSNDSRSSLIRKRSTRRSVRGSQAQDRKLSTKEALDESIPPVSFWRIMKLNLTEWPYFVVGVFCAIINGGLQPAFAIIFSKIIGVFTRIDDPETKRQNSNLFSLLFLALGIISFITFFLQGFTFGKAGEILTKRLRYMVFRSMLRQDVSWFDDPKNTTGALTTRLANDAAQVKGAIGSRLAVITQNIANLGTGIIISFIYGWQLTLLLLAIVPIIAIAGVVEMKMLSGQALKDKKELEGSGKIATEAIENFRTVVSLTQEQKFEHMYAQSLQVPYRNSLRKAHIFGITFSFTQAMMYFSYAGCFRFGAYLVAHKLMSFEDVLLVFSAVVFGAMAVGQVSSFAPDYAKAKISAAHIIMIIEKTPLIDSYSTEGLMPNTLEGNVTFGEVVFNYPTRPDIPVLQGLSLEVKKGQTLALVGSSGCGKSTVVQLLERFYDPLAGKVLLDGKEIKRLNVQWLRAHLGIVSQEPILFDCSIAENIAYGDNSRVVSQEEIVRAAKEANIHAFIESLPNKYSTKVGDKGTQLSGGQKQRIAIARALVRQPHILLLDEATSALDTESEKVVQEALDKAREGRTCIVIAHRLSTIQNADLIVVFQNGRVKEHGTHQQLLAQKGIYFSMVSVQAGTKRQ
The target of data set [2] is T1, ATP-dependent translocase ABCB1. The data set can be described thus: TP_TRANSPORTER: transepithelial transport of Rhodamine 123 in the presence of Hoechst 33342 at a concentration of 5uM in MDR1-expressing MDCK cells.
For data set [3] the target is unchanged. The data set can be described thus: TP_TRANSPORTER: transepithelial transport of Hoechst 33342 in the presence of Daunorubicin (Daunomycin) at a concentration of 80uM in MDR1-expressing MDCK cells.
The target is the same in data set [4]. The data set can be described thus: TP_TRANSPORTER: transepithelial transport of Rhodamine 123 in the presence of Daunorubicin (Daunomycin) at a concentration of 80uM in MDR1-expressing MDCK cells.

Regarding `CCOc1ccc(-c2nc3cc(-c4nc5cc(N6CCN(C)CC6)ccc5[nH]4)ccc3[nH]2)cc1`, the Activity result is “substrate [+]” in data set [1] and “inhibitor [+]” in data set [2].
Regarding `COc1cccc2c1C(=O)c1c(O)c3c(c(O)c1C2=O)C[C@@](O)(C(C)=O)C[C@@H]3O[C@H]1C[C@H](N)[C@H](O)[C@H](C)O1` [DAUNORUBICIN], the Activity result in data set [3] and in data set [4] was “inhibitor [+]” throughout.
As for `COC(=O)c1ccccc1-c1c2ccc(=N)cc-2oc2cc(N)ccc12.Cl` [RHODAMINE123], the Activity entry in data set [1] is “substrate [+]”.
